{"source": "patent US20160030426A1", "about": "“HETEROARYL COMPOUNDS AND USES THEREOF” (CELGENE AVILOMICS RESEARCH, INC., priority 2013, published 2016)", "target": "T1, EGFR-WT (Homo sapiens, UniProt P00533)", "T1 construct": "purchased Invitrogen PV3872", "T1 sequence (P00533 668-1210 limits assumed)": "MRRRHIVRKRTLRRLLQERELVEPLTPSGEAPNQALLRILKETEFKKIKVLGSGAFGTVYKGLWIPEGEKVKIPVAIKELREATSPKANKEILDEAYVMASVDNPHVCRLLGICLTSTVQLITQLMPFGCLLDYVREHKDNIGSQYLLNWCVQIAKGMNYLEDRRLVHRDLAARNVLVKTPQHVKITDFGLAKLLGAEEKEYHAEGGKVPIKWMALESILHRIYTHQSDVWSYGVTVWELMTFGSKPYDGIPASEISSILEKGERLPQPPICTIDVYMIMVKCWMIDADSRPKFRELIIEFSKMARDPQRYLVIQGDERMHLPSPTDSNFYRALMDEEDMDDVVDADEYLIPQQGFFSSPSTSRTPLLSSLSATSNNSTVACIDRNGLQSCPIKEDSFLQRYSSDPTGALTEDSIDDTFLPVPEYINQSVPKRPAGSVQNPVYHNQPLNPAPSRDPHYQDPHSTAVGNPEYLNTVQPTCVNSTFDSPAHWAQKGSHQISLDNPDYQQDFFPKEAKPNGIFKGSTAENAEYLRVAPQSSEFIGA", "assay": "Omnia assay for potency assessment against EGFR-WT", "assay_type": "biochemical", "conditions": "30 min pre-incubation at 27° C., read-out: EGFR Inhibition", "procedure": "Omnia Assay Protocol for Potency Assessment Against BTK and EGFR\nThe mechanics of the assay platform are best described by the vendor (Invitrogen, Carlsbad, Calif.).\n10× stocks of EGFR-WT (PV3872) from Invitrogen, 1.13×ATP (Invitrogen catalog number AS001A) and appropriate Tyr-Sox conjugated peptide substrates (Invitrogen catalog number KCZ1001) were prepared in 1× kinase reaction buffer consisting of 20 mM Tris, pH 7.5, 5 mM MgCl2, 1 mM EGTA, 5 mM β-glycerophosphate, 5% glycerol (10× stock, Invitrogen catalog number KB002A) and 0.2 mM DTT (Invitrogen catalog number DS001A). 5 μL of each enzyme were pre-incubated in a Corning (#3574) 384-well, white, non-binding surface microtiter plate (Corning, N.Y.) for 30 min. at 27° C. with a 0.5 μL volume of 50% DMSO and serially diluted compounds prepared in 50% DMSO. Kinase reactions were started with the addition of 45 μL of the ATP/Tyr-Sox peptide substrate mix and monitored every 30-90 seconds for 60 minutes at λex360/λem485 in a Synergy^4 plate reader from BioTek (Winooski, Vt.). […] Initial velocity (0 minutes to ˜30 minutes) from each reaction was determined from the slope of a plot of relative fluorescence units vs time (minutes) and then plotted against inhibitor concentration to estimate IC50 from log[Inhibitor] vs Response, Variable Slope model in GraphPad Prism from GraphPad Software (San Diego, Calif.).", "data": [{"smiles": "[2H]C([2H])([2H])OC([2H])([2H])C([2H])([2H])Oc1ccc(Nc2ncc(F)c(Nc3cccc(NC(=O)C=C)c3)n2)cc1", "note": "[II-7]", "values": [{"measurement": "IC50", "result": "0.01 to 0.1", "unit": "µM"}]}]}
